Among the data in patent US11560385B2, “Proteasome activity enhancing compounds” (Proteostasis Therapeutics, Inc., priority 2018, dated 2023) are IC50 values, retold here.

In general, IC50 refers to the concentration at which inhibition is half-maximal. A high value points to weaker potency in that assay.

Some results are limits rather than exact numbers.

USP14, sequence (P54578 whole entry, looked up): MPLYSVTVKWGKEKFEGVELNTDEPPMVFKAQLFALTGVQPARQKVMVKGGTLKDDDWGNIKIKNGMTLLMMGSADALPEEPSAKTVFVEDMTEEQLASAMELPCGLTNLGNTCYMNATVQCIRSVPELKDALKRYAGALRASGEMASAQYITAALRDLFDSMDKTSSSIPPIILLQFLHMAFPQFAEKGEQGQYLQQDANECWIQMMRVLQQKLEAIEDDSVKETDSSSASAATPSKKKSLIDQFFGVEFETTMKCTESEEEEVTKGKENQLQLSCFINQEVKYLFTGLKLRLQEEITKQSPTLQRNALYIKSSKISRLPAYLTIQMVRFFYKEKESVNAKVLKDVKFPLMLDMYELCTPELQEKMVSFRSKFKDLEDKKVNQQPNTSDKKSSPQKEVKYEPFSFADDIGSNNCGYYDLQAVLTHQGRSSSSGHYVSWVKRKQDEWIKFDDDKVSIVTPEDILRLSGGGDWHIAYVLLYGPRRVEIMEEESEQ

This assay has as its target USP14 (Homo sapiens (Human), UniProt P54578). In words: Usp14 inhibition assay (Example 57B, B-series compounds). Format: biochemical. The settings on record: IC50 class; average value from a minimum of two experimental determinations. From the text:
Example 57B: Usp14 Inhibition Assay
The IC50 values in the Table below represent the average value from a minimum of two experimental determinations.
`CSCCCCc1cc(C(=O)CN2C3CCC2[C@@H](O)C3)c(C)n1-c1ccc(C#N)cc1` (mixture of isomers) [Example 37B, (±)-4-(3-(2-((2R)-2-Hydroxy-7-azabicyclo[2.2.1]heptan-7-yl)acetyl)-2-methyl-5-(4-(methylthio)butyl)-1H-pyrrol-1-yl)benzonitrile]: the IC50 was below 50 nM.
The figure for `CSCCCCCc1cc(C(=O)CN2[C@@H]3CC[C@H]2[C@@H](O)C3)c(C)n1-c1ccc(C#N)cc1` (racemic) [Example 38B, (±)-4-(3-(2-((1R,2R,4S)-2-Hydroxy-7-azabicyclo[2.2.1]heptan-7-yl)acetyl)-2-methyl-5-(5-(methylthio)pentyl)-1H-pyrrol-1-yl)benzonitrile] is below 50 nM; for `Cc1c(C(=O)CN2C3CCC2[C@@H](O)C3)cc(CC2COC2)n1-c1ccc(C#N)cc1` (mixture of isomers) [Example 39B, (±)-4-(3-(2-((2R)-2-Hydroxy-7-azabicyclo[2.2.1]heptan-7-yl)acetyl)-2-methyl-5-(oxetan-3-ylmethyl)-1H-pyrrol-1-yl)benzonitrile] it is below 50 nM; for `Cc1c(C(=O)CN2C3CCC2[C@@H](O)C3)c(Cl)c(CCCCC#N)n1-c1ccc(C#N)c(F)c1` (mixture of isomers) [Example 40B, (±)-4-(3-Chloro-2-(4-cyanobutyl)-4-(2-((2R)-2-hydroxy-7-azabicyclo[2.2.1]heptan-7-yl)acetyl)-5-methyl-1H-pyrrol-1-yl)-2-fluorobenzonitrile] it is below 50 nM.
The figure for `Cc1nc(Cc2cc(C(=O)CN3C4CCC3[C@@H](O)C4)c(C)n2-c2ccc(C#N)cc2)cs1` (mixture of isomers) [Example 41B, (±)-4-(3-(2-((2R)-2-Hydroxy-7-azabicyclo[2.2.1]heptan-7-yl)acetyl)-2-methyl-5-((2-methylthiazol-4-yl)methyl)-1H-pyrrol-1-yl)benzonitrile] is below 50 nM; for `Cc1c(C(=O)CN2C3CCC2[C@@H](O)C3)cc(CCCC2(C)COC2)n1-c1ccc(C#N)cc1` (mixture of isomers) [Example 42B, (±)-4-(3-(2-((2R)-2-Hydroxy-7-azabicyclo[2.2.1]heptan-7-yl)acetyl)-2-methyl-5-(3-(3-methyloxetan-3-yl)propyl)-1H-pyrrol-1-yl)benzonitrile] it is below 50 nM.
Compound `Cc1c(C(=O)CN2C3CCC2[C@@H](O)C3)cc(CCC2COC2)n1-c1ccc(C#N)cc1` (mixture of isomers) [Example 43B, (±)-4-(3-(2-((2R)-2-Hydroxy-7-azabicyclo[2.2.1]heptan-7-yl)acetyl)-2-methyl-5-(2-(oxetan-3-yl)ethyl)-1H-pyrrol-1-yl)benzonitrile] had an IC50 below 50 nM.
For the compound `Cc1c(C(=O)CN2[C@@H]3CC[C@@H]2[C@@H](O)C3)cc(CC2CCOCC2)n1-c1ccc(C#N)cc1` (racemic) [Example 44B, (±)-4-(3-(2-((1R,2S,4R)-2-Hydroxy-7-azabicyclo[2.2.1]heptan-7-yl)acetyl)-2-methyl-5-((tetrahydro-2H-pyran-4-yl)methyl)-1H-pyrrol-1-yl)benzonitrile], the IC50 is below 50 nM.
The compound `Cc1c(C(=O)CN2C3CCC2[C@@H](O)C3)cc(C[C@H]2C[C@H](C#N)C2)n1-c1ccc(C#N)cc1` (mixture of isomers) [Example 45B, (±)-4-(5-(((1r,3R)-3-Cyanocyclobutyl)methyl)-3-(2-((2R)-2-hydroxy-7-azabicyclo[2.2.1]heptan-7-yl)acetyl)-2-methyl-1H-pyrrol-1-yl)benzonitrile] gave an IC50 below 50 nM.
The value for `Cc1c(C(=O)CN2C3CCC2[C@@H](O)C3)c(Cl)c(/C=C/CC(C)(C)C#N)n1-c1ccc(C#N)cc1` (mixture of isomers) [Example 46B, (±)-4-(3-Chloro-2-((E)-4-cyano-4-methylpent-1-en-1-yl)-4-(2-((2R)-2-hydroxy-7-azabicyclo[2.2.1]heptan-7-yl)acetyl)-5-methyl-1H-pyrrol-1-yl)benzonitrile] was 50 to 500 nM; that for `Cc1c(C(=O)CN2C3CCC2[C@@H](O)C3)cc(C#N)n1-c1ccc(C#N)cc1` (mixture of isomers) [Example 47B, (±)-1-(4-Cyanophenyl)-4-(2-((2R)-2-hydroxy-7-azabicyclo[2.2.1]heptan-7-yl)acetyl)-5-methyl-1H-pyrrole-2-carbonitrile] was below 50 nM.
As to `Cc1c(C(=O)CN2C3CCC2[C@@H](O)C3)cc(CC[Si](C)(C)C)n1-c1ccc(C#N)cc1` (mixture of isomers) [Example 50B, (±)-4-(3-(2-((2R)-2-Hydroxy-7-azabicyclo[2.2.1]heptan-7-yl)acetyl)-2-methyl-5-(2-(trimethylsilyl)ethyl)-1H-pyrrol-1-yl)benzonitrile], the IC50 fell in the range of 50 to 500 nM.
The figure for `Cc1c(C(=O)CN2C3CCC2[C@@H](O)C3)cc(CCCC2CC(C)(C)OC2=O)n1-c1ccc(C#N)cc1` (mixture of isomers) [Example 51B, (±)-4-(5-(3-(5,5-Dimethyl-2-oxotetrahydrofuran-3-yl)propyl)-3-(2-((1R,2R,4S)-2-hydroxy-7-azabicyclo[2.2.1]heptan-7-yl)acetyl)-2-methyl-1H-pyrrol-1-yl)benzonitrile] is below 50 nM; for `Cc1c(C(=O)CN2C3CCC2[C@@H](O)C3)cc(/C=C/CC2CC(C)(C)OC2=O)n1-c1ccc(C#N)cc1` (mixture of isomers) [Example 52B, (±)-4-(5-((E)-3-(5,5-Dimethyl-2-oxotetrahydrofuran-3-yl)prop-1-en-1-yl)-3-(2-((1S,2S,4R)-2-hydroxy-7-azabicyclo[2.2.1]heptan-7-yl)acetyl)-2-methyl-1H-pyrrol-1-yl)benzonitrile] it is below 50 nM; for `Cc1c(C(=O)CN2[C@@H]3CC[C@H]2[C@@H](C)C3)cc(CC2COC2)n1-c1ccc(C#N)cc1` (racemic) [Example 53B, (±)-4-(2-Methyl-3-(2-((1R,2R,4S)-2-methyl-7-azabicyclo[2.2.1]heptan-7-yl)acetyl)-5-(oxetan-3-ylmethyl)-1H-pyrrol-1-yl)benzonitrile] it is below 50 nM.
As to `Cc1c(C(=O)CN2[C@@H]3CC[C@H]2[C@@H](O)C3)cc(CCC2(C)COC2)n1-c1ccc(C#N)cc1` (racemic) [Example 55B, (±)-4-(3-(2-((1R,2R,4S)-2-Hydroxy-7-azabicyclo[2.2.1]heptan-7-yl)acetyl)-2-methyl-5-(2-(3-methyloxetan-3-yl)ethyl)-1H-pyrrol-1-yl)benzonitrile], the IC50 was below 50 nM.
Take `Cc1c(C(=O)CN2[C@H]3CC[C@@H]2[C@@H](C)C3)cc(CC2COC2)n1-c1ccc(C#N)cc1` (racemic) [Example 56B, (±)-4-(2-Methyl-3-(2-((1R,2S,4S)-2-methyl-7-azabicyclo[2.2.1]heptan-7-yl)acetyl)-5-(oxetan-3-ylmethyl)-1H-pyrrol-1-yl)benzonitrile]: the IC50 is 50 to 500 nM.
The figure for `Cc1c(C(=O)CN2C3CCC2[C@@H](O)C3)cc(C#CC2COC2)n1-c1ccc(C#N)cc1` (mixture of isomers) [Example 57B, (±)-4-(3-(2-((2R)-2-Hydroxy-7-azabicyclo[2.2.1]heptan-7-yl)acetyl)-2-methyl-5-(oxetan-3-ylethynyl)-1H-pyrrol-1-yl)benzonitrile] is 50 to 500 nM.
`Cc1cc(C(=O)CN2C3CCC2[C@@H](O)C3)c(C)n1-c1ccc(C#N)cc1` (mixture of isomers) [Example 64B, (±)-4-(3-(2-((2R)-2-Hydroxy-7-azabicyclo[2.2.1]heptan-7-yl)acetyl)-2,5-dimethyl-1H-pyrrol-1-yl)benzonitrile] gave a 50% inhibitory concentration (IC50) of 50 to 500 nM.
Compound `CO[C@H]1C[C@H]2CC[C@@H]1N2CC(=O)c1cc(C)n(-c2ccc(C#N)cc2)c1C` (racemic) [Example 70B, (±)-4-(3-(2-((1R,2R,4S)-2-Methoxy-7-azabicyclo[2.2.1]heptan-7-yl)acetyl)-2,5-dimethyl-1H-pyrrol-1-yl)benzonitrile] showed an IC50 of 50 to 500 nM.
`Cc1cc(C(=O)CN2[C@@H]3CC[C@H]2[C@@](C)(O)C3)c(C)n1-c1ccc(C#N)cc1` (racemic) [Example 71B, (±)-4-(3-(2-((1R,2R,4S)-2-Hydroxy-2-methyl-7-azabicyclo[2.2.1]heptan-7-yl)acetyl)-2,5-dimethyl-1H-pyrrol-1-yl)benzonitrile] returned an IC50 above 500 nM.
As for `Cc1cc(C(=O)CN2[C@@H]3CC[C@H]2[C@](O)(C(C)(C)C)C3)c(C)n1-c1ccc(C#N)cc1` (racemic) [Example 72B, (±)-4-(3-(2-((1R,2S,4S)-2-(tert-Butyl)-2-hydroxy-7-azabicyclo[2.2.1]heptan-7-yl)acetyl)-2,5-dimethyl-1H-pyrrol-1-yl)benzonitrile], the IC50 was above 500 nM.
The value for `Cc1cc(C(=O)CN2[C@@H]3CC[C@H]2[C@](O)(C(F)(F)F)C3)c(C)n1-c1ccc(C#N)cc1` (racemic) [Example 73B, (±)-4-(3-(2-((1R,2R,4S)-2-Hydroxy-2-(trifluoromethyl)-7-azabicyclo[2.2.1]heptan-7-yl)acetyl)-2,5-dimethyl-1H-pyrrol-1-yl)benzonitrile] was above 500 nM; that for `Cc1c(C(=O)CN2C3CCC2[C@@H](O)C3)c(C)n(-c2ccc(C#N)cc2)c1C` (mixture of isomers) [Example 76B, (±)-4-(3-(2-((2R)-2-Hydroxy-7-azabicyclo[2.2.1]heptan-7-yl)acetyl)-2,4,5-trimethyl-1H-pyrrol-1-yl)benzonitrile] was 50 to 500 nM; that for `Cc1c(Cl)c(C(=O)CN2C3CCC2[C@@H](O)C3)c(C)n1-c1ccc(C#N)cc1` (mixture of isomers) [Example 77B, (±)-4-(3-Chloro-4-(2-((2R)-2-hydroxy-7-azabicyclo[2.2.1]heptan-7-yl)acetyl)-2,5-dimethyl-1H-pyrrol-1-yl)benzonitrile] was 50 to 500 nM.
Turning to `Cc1c(F)c(C(=O)CN2C3CCC2[C@@H](O)C3)c(C)n1-c1ccc(C#N)cc1` (mixture of isomers) [Example 78B, (±)-4-(3-Fluoro-4-(2-((2R)-2-hydroxy-7-azabicyclo[2.2.1]heptan-7-yl)acetyl)-2,5-dimethyl-1H-pyrrol-1-yl)benzonitrile], the IC50 fell in the range of 50 to 500 nM.
`Cc1c(C(=O)CN2C3CCC2[C@@H](O)C3)c(C(F)(F)F)c(C)n1-c1ccc(C#N)cc1` (mixture of isomers) [Example 79B, (±)-4-(3-(2-((2R)-2-Hydroxy-7-azabicyclo[2.2.1]heptan-7-yl)acetyl)-2,5-dimethyl-4-(trifluoromethyl)-1H-pyrrol-1-yl)benzonitrile] returned an IC50 above 500 nM.
